In patent publication US5352703A, “Antitussive and mucus regulating agent, a process for the preparation thereof and pharmaceutical compositions containing it” (priority 1990, dated 1994):
“Also recorded” adds a separate entry of the source.

Columns and labels:
Type in all cases: in vivo
[1] = Acute pharmacokinetic study in the rat, single administration at equimolecular doses
Method: A study was carried out on the rat, by comparing the kinetic profiles of YS 912 and Ambroxol, after single administration at equimolecular doses.

bronchial fluid = assay: Bronchosecretolytic activity (fluorescein amount in bronchial fluid); settings: for Fluorescein amount in bronchial fluid: means of 12 animals, controls 0.26 ± 0.03; for ED50: po, bronchosecretolytic activity, read-out: DE50 (calculated effective dose 50)
Source text: The procedure described by H. […] Graziani and P. Cazzulani-(I1 Farmaco Ed. Pr. 36, 167; 1981) was used, comparing YS 912 with Ambroxol at the same weight doses.

[2] = system: Citric acid induced cough; assay: Citric acid induced cough in Guinea pig; settings: for Cough strokes after treatment: mean ± S.E.; for Cough strokes after treatment / % inhibition vs. basal (cough strokes): n = 10; for ED50: Cavia porcellus, ip., citric acid cough, read-out: DE50 (effective dose 50, ED50)
Source text: 1. Citric acid induced cough in Guinea pig. The procedure described by R.A. Turner in "Screening methods in pharmacology-Antitussive agents" -Academic Press. New York-chapt. 23-page 219, 1965, with the changes reported by S. Malandrino et al. (Arzneim. Forsch. Drug. REs, 38, 1141, 1988), was used, comparing YS 912 with Ambroxol.

NH3 induced cough = NH3 induced cough in Guinea pig; settings: for antitussive activity in words: NH3 cough, p.o., Ambroxol at twice the YS 912 dose
Source text: NH3 induced cough in Guinea pig.
23-page 219, 1965 with the changes reported by S. Malandrino et al. (Arzneim. Forsch. Drug. Res, 38, 1141, 1988) was used, comparing YS 912, Ambroxol and two standard control drugs: Fominoben and Codeine phosphate.

[3] = "In steady" pharmacokinetic study in the rat, equimolecular doses during 6 days; settings: extrapolated to human from rat
[4] = system: Cough induced by mechanical stimulation; assay: Cough induced by mechanical stimulation in dog; settings: for antitussive activity in words: mechanical stimulation, p.o., Ambroxol at twice the YS 912 dose
Source text: Cough induced by mechanical stimulation in dog.
24 Page 523, was used, comparing YS 912 with Ambroxol, Fominoben and Codeine phosphate.

[5] = single administration at equimolecular doses

Row | SMILES | % v.s. controls (fluorescein amount) (bronchial fluid; 12.5 mg/kg p.o.) | Fluorescein amount in bronchial fluid (bronchial fluid; 12.5 mg/kg p.o.) | % v.s. controls (fluorescein amount) (bronchial fluid; 25.0 mg/kg p.o.) | Fluorescein amount in bronchial fluid (bronchial fluid; 25.0 mg/kg p.o.) | % v.s. controls (fluorescein amount) (bronchial fluid; 50.0 mg/kg p.o.) | Fluorescein amount in bronchial fluid (bronchial fluid; 50.0 mg/kg p.o.) | ED50 (bronchial fluid) | Cough strokes after treatment ([2]; 12.5 mg/kg ip.) | % inhibition vs. basal (cough strokes) ([2]; 12.5 mg/kg ip.) | Cough strokes after treatment ([2]; 25 mg/kg ip.) | % inhibition vs. basal (cough strokes) ([2]; 25 mg/kg ip.) | Cough strokes after treatment ([2]; 50 mg/kg ip.) | % inhibition vs. basal (cough strokes) ([2]; 50 mg/kg ip.) | ED50 [2] | % inhibition vs. controls (NH3 induced cough; 50 mg/kg p.o.) | antitussive activity in words (NH3 induced cough) | % inhibition vs. controls ([4]; 50 mg/kg p.o.) | antitussive activity in words [4] | other results
1 | O=C(Nc1c(Br)cc(Br)cc1CNC1CCC(O)CC1)c1ccccc1 (stereo not shown) [YS 912, 2-benzoylamino-3,5-dibromo-N-(4-hydroxycyclohexyl)benzylamine] | 19.23% | 0.31 ± 0.03 | 30.76% | 0.34 ± 0.04 | 46.15% | 0.38 ± 0.04 | 60 mg/kg | 2.90 ± 0.60 cough strokes | 62.34% | 2.30 ± 0.54 cough strokes | 75.00% | 2.00 ± 0.47 cough strokes | 78.95% | 4.81 mg/kg | 61.0% | high activity | 54.0% | comparable to that of the two control compounds | Tmax ([1]; plasma, single administration, read-out: time of plasmatic concentration peak (converted)): 30 min; adsorption (absorption) ([1]; single administration): fast and high; main metabolite ([1]; single administration): the main metabolite being Ambroxol; AUC compared with Ambroxol [1, 5]: higher value being evidenced also in the case of the AUC; plasmatic half-life, increase over that of Ambroxol [1, 5]: 30%; metabolism: kinetic ([1]; single administration, after the 6th hour): slower kinetic; bronchosecretolytic effectiveness in words (bronchial fluid; p.o.): more favourable; antitussive activity in words ([2]; 12.5, 25, 50 mg/kg ip., compared with Ambroxol): remarkable antitussive activity; also recorded: higher than that of Ambroxol; potency by ED50 relative to Ambroxol ([2]; ratio to Ambroxol): 14 times; plasmatic concentrations in human clinic, extrapolated, two daily YS 912 vs three daily Ambroxol administrations [3]: two daily administrations of YS 912 allow to achieve plasmatic concentrations (and therefore therapeutical effectiveness) which can be compared with those obtained after three daily administrations of Ambroxol
2 | CN(CC(=O)N1CCOCC1)Cc1c(Cl)cccc1NC(=O)c1ccccc1 [Fominoben] | – | – | – | – | – | – | – | – | – | – | – | – | – | – | 63.4% | – | 59.0% | – | –
3 | COc1ccc2c3c1O[C@H]1[C@@H](O)C=C[C@H]4[C@@H](C2)N(C)CC[C@@]341 [Codeina fosfato] | – | – | – | – | – | – | – | – | – | – | – | – | – | – | – | – | – | – | % inhibition vs. controls (NH3 induced cough; 5 mg/kg p.o.): 56.1%; % inhibition vs. controls ([4]; 5 mg/kg p.o.): 63.1%
4 | Nc1c(Br)cc(Br)cc1CNC1CCC(O)CC1 (stereo not shown) [Ambroxol, 2-Amino-3,5-dibromo-N-(4-hydroxycyclohexyl)benzylamine, reference compound] | 23.07% | 0.32 ± 0.03 | 26.92% | 0.33 ± 0.02 | 42.30% | 0.37 ± 0.03 | 95.2 mg/kg | 7.40 ± 1.32 cough strokes | 19.57% | 6.20 ± 0.61 cough strokes | 35.42% | 4.80 ± 1.02 cough strokes | 46.07% | 57.2 mg/kg | – | poorly effective, lacking any statistical significance | – | substantially no effectiveness | last time at which it can be dosed in plasma ([1]; in vivo): 12 h; time of plasmatic concentration peak ([1]; in vivo): second; % inhibition vs. controls (NH3 induced cough; 100 mg/kg p.o.): 34.2%; % inhibition vs. controls ([4]; 100 mg/kg p.o.): 13.5%
